Here are results for seven compounds from paper PMC7571160, “Dibromopinocembrin and Dibromopinostrobin Are Potential Anti-Dengue Leads with Mild Animal Toxicity” (Molecules, 2020).

The subject of data set [1] is dengue virus serotype 2 (DENV2), New Guinea C strain. The data set is described as follows: DENV2 NGC effective concentration (EC50) test in LLC/MK2 cells, plaque titration. The settings on record: for SI NGC (CC50/EC50): LLC/MK2 CC50 / DENV2 NGC EC50; for EC50: Dengue virus, DENV2 NGC in LLC/MK2 cells, MOI 0.1, 72 h, plaque titration. The class given is cell-based. The method, then: (§1) LLC/MK2 were seeded at 5 × 10^4 cells per well of 24-well plate in growth medium and incubated overnight at 37 °C under 5% CO2. Cells were infected with DENV2 NGC at the multiplicity of infection (MOI) of 0.1 for 1 h with gentle rocking every 15 min. Cells were washed with PBS and incubated with MEM supplemented with 1% fetal bovine serum, 100 I.U./mL penicillin, and 100 μg/mL streptomycin. The compound was added to the virus-infected cells during and after infection. The cells were incubated for 72 h, unless otherwise indicated, at 37 °C under 5% CO2. Supernatants were collected and the viral infectivity was analyzed by 96-well plaque titration. Data were plotted and the EC50 values were calculated by nonlinear regression analysis. Each concentration was tested in duplicate and the results were reported as the means and standard deviation of three independent experiments. The selectivity index was calculated from the ratio of CC50 and EC50. Moreover, additional EC50s of TH002 and TH011 were also taken from Huh-7 (8 × 10^4 cells) and DENV2 16,681 (MOI of 1). Supernatants were collected after 72 h incubation for plaque titration EC50 values were calculated by nonlinear regression analysis. Data were presented by means and standard errors of three independent experiments.

Data set [2] shares this test system. Further details: method as in Srivarangkul et al. 2018 [11]. The settings on record: ref Srivarangkul et al. 2018 [11]; read-out: DENV2 NGC EC50; cited from earlier work.
The test system of the next data set is LLC/MK2 cells. Also on record: method as in Srivarangkul et al. 2018 [11]. The settings on record: ref Srivarangkul et al. 2018 [11]; cited from earlier work.
For a further data set, the system named is Zika viruses. Also on record: method as in PMID 30959074. As to conditions: read-out: Zika virus EC50; cited from earlier work.
The next data set concerns DENV NS3 protease. As to conditions: cited from earlier work.
The subject of a further data set is DENV NS5 polymerase. Also on record: method as in PMID 22050318. The settings on record: cited from earlier work.
Details of data set [3]: method as in PMID 25744566. The settings on record: rat, intravenous, 10 mg, single dose; cited from earlier work.
Details of data set [4]: method as in PMID 25744566. The settings on record: human, 20 mg, iv drip; cited from earlier work.
Data set [5] in a line: Cytotoxic concentration (CC50) test, MTS, LLC/MK2. As to conditions: rhesus monkey, LLC/MK2 cells. The class given is cell-based, Macaca mulatta (rhesus monkey). The method, then: (§2) LLC/MK2, THP-1, HEK-293, HepG2, or Huh-7 cells were seeded at 10^4 cells per well of 96-well plate and incubated overnight. Compounds were prepared to 6-10 different concentrations in filter-sterilized dimethylsulfoxide (Merck®, Darmstadt, Germany) before addition to the cells. The plates were incubated for 48 h before the MTS reagent (Promega®, Madison, WI, USA) was added to cells according to the manufacturer's protocol and incubated for 4 h before analysis by spectrophotometry at […]. Huh-7 cytotoxicity was assessed by the Alamar Blue assay (Invitrogen®, Waltham, MA, USA) and read by fluorometry at the excitation and emission wavelengths at 570 and 600 nm, respectively. Each compound was tested in triplicate. Cytotoxic concentrations (CC50) were calculated while using non-linear regression analysis and the results were reported as means and standard deviation of three independent experiments.

The nature of data set [6]: Solubility observations in culture media and vehicles. The class given is physicochemical. As to conditions: for Concentration above which compound was only partially dissolved: cell culture test conditions; for Dissolution in culture media, DMSO and NSS: data not shown.
The next data set relates to DENV2 16681. The data set is described as follows: DENV2 16681 EC50 test in Huh-7 cells, plaque titration. The class given is cell-based, dengue virus serotype 2. The settings on record: for EC50: Dengue virus, DENV2 16681 in Huh-7 cells, MOI 1, 72 h, plaque titration; for SI (16681) (CC50/EC50): Huh-7 CC50 / DENV2 16681 EC50. The method, then: as §1
A short description of data set [7]: Cytotoxic concentration (CC50) test, MTS, THP-1. The class given is cell-based. As to conditions: human, THP-1 cells, THP-1, 48 h. The method, then: as §2
Data set [8] in a line: Cytotoxic concentration (CC50) test, MTS, HEK-293. The class given is cell-based. The settings on record: human, HEK-293 cells, HEK-293, 48 h. The method, then: as §2
Data set [9] can be described thus: Cytotoxic concentration (CC50) test, MTS, HepG2. The class given is cell-based. The settings on record: human, HepG2 cells, HepG2, 48 h. The method, then:
as §2

Data set [10] is described as follows: Cytotoxic concentration (CC50) test, Alamar Blue, Huh-7. The settings on record: human, Huh-7 cells; Huh-7, Alamar Blue. The class given is cell-based. The method, then: as §2
(Alamar Blue is a resazurin reagent that responds to reducing activity.)

The next data set has as its system C57BL/6 mice. The data set is described as follows: Animal toxicity study, intravenous administration. The class given is in vivo, mouse. As to conditions: 10 mg/kg intravenous. The method, then:
The animal care and use protocol identification number 016-2562 was approved by the Institutional Animal Care and Use Committee (CU-ACUP) of the Faculty of Medicine, Chulalongkorn University, Bangkok, Thailand, based on the National Institutes of Health, USA’s criteria for the use and treatment of laboratory animals. Male 8-week-old C57BL/6 mice purchased from the National Laboratory Animal Center, Nakhornpathom, Thailand were used in the experiments. TH011 and TH002 were diluted with 10% DMSO in normal saline solution. The preparations were intravenously administered at the concentration of 10 mg/kg through a tail vein (n = 5/group). The 10% DMSO in normal saline solution was used as vehicle control. Blood were collected through tail vein nicking at day one, three, and eight after administration and the serum samples were kept at −80 °C until analysis. Renal function (serum creatinine; Scr) and liver function (serum alanine transaminase; ALT) were measured by colorimetric assays while using QuantiChromTM (DICT-500, BioAssay, Hayward, CA, USA) and EnzyChrom (EALT-100, BioAssay), respectively.

Data set [11] relates to DENV envelope-induced fusion. In words: Fusion inhibition study in C6/36 cells. As to conditions: 10 µM, DENV2 NGC-infected C6/36 cells, 0.5 M MES pH 5.5. The class given is cell-based, dengue virus serotype 2. The method, then:
C6/36 were seeded at 1 × 10^5 cells per well of 24-well plate MEM that was supplemented with 10% FBS and incubated overnight at 28 °C. Cells were infected with the virus at the multiplicity of infection (MOI) of 1 for 1 h at 28 °C. Compounds TH002 and TH011 were diluted in DMSO and added to the infected cells to the final concentration of 10 µM in 1% DMSO after DENV2 NGC (M.O.I. of 1) infection. Cells were incubated with MEM supplemented with 1% fetal bovine serum for 48 h before the addition of 0.5 M MES. Cells were incubated for an additional 24–48 h at 28 °C until the fused cells were visualized under light microscope.
Figure S5. Fusion inhibition assay; TH002 and TH011 (10 µM) were incubated with the DENV2-infected cells for
2 days before addition of 0.5 M MES, pH 5.5. The 4G2 antibody was an inhibitor of DENV envelope fusion and
was used as a control. Pos and Neg were abbreviated from positive (DENV) and negative (media-only) controls,
(1 picture or pasted object on this page, not shown here)

The next data set relates to DENV2. Further details: method as in PMID 29360474. As to conditions: cited from earlier work.
The next data set relates to DENV 4. Further details: method as in PMID 29360474. As to conditions: read-out: DENV4 EC50; cited from earlier work.

Where two headings read alike, the source gives them in different places.

As to `O=C1CC(c2ccccc2)Oc2cc(O)cc(O)c21` (stereo not drawn) [TH022, 5,7-dihydroxyflavanone], in data set [1], the “SI NGC (CC50/EC50)” value is listed as >6.47. The EC50 in data set [2] was 15.5 µM; in the data set with Zika viruses, 17.4 µM. The CC50 in the data set on LLC/MK2 cells was > 100 µM. Also, in the data set on DENV NS3 protease, the “DENV NS3 protease IC50” value is 286.90 µg/mL. Further, in the data set on DENV NS5 polymerase, the “Inhibition of DENV NS5 polymerase activity” value is on record as “not inhibit”. In addition, the values for the half-life in data set [3] and in data set [4] were 12 to 14 min and 47 min, respectively.

Turning to `COc1cc2c(c(O)c1I)C(=O)CC(c1ccccc1)O2` (stereo not drawn) [TH018, 6-iodo-5-hydroxy-7-methoxyflavanone], in [1], the EC50 turned out to be 4.1 ± 1.84 µM and the “SI NGC (CC50/EC50)” value was >6.0945. Moreover, the half-maximal cytotoxic concentration (CC50) at 48 h in [5] is > 25 µM. In addition, the “Concentration above which compound was only partially dissolved” value in data set [6] is given as > 25 µM.

For the compound `O=C1CC(c2ccccc2)Oc2c(Br)c(O)c(Br)c(O)c21` (stereo not drawn) [TH011, 6,8-dibromo-5,7-dihydroxyflavanone], the EC50 in data set [1] was determined as 2.06 ± 0.754 µM; with DENV2 16681 it was 4.59 µM. Moreover, in [1], the “SI NGC (CC50/EC50)” value is on record as 32.5621. For the same compound, in the data set with DENV2 16681, the “SI (16681) (CC50/EC50)” value is given as “(10.5201)”. Also, the CC50 at 48 h in [5] is 67.2 ± 0.973 µM; in [7], > 100 µM; in data set [8], 93.2 ± 5.99 µM; in data set [9], > 100 µM; in [10], 48.3 ± 4.11 µM. The “ALT levels (hepatotoxicity)” value in the data set on C57BL/6 mice (day 1 and 3) is given as “not obviously seen”. The “Inhibition of DENV envelope-induced fusion under acidic pH” value in data set [11] is “no fusion inhibition observed”. For the same compound, the “Dissolution in culture media, DMSO and NSS” value in [6] was “completely dissolved”.

For the compound `COc1c(Br)c(O)c2c(c1Br)OC(c1ccccc1)CC2=O` (stereo not drawn) [TH002, 6,8-dibromo-5-hydroxy-7-methoxyflavanone], the values for the EC50 (in [1]; in the data set on DENV2 16681) were 5.86 ± 0.507 µM and 3.19 µM, respectively. In addition, the “SI NGC (CC50/EC50)” value in [1] is given as >17.0745,. For the same compound, the “SI (16681) (CC50/EC50)” value with DENV2 16681 is “(23.9342)”. The half-maximal cytotoxic concentration (CC50) at 48 h is > 100 µM in [5]; 51.8 ± 2.3 µM in [7]; > 100 µM in data set [8]; 49.9 ± 2.7 µM in data set [9]; 76.4 ± 7.2 µM in [10]. Further, the “ALT levels (hepatotoxicity)” value in the data set with C57BL/6 mice (day 1 and 3) is reported as “mildly elevated”; in the data set with C57BL/6 mice (day 8), “decreased to normal”. In addition, the “Inhibition of DENV envelope-induced fusion under acidic pH” value in data set [11] is on record as “no fusion inhibition observed”. For the same compound, in [6], the “Dissolution in culture media, DMSO and NSS” value is on record as “completely dissolved”.

In the case of `COc1cc(O)c2c(c1)O[C@H](c1ccccc1)CC2=O` [TH019, pinostrobin], in [1], the EC50 was found to be 10.8 ± 1.63 µM and the “SI NGC (CC50/EC50)” value turned out to be 7.3242. The cytotoxic concentration (CC50) at 48 h in data set [5] turned out to be 78.8 ± 2.92 µM. In the data set on DENV NS3 protease, the “DENV NS3 protease IC50” value is given as 90.48 µg/mL and the Ki is 345 ± 70 µM.

As for `COc1cc2c(c(O)c1C)C(=O)CC(c1ccccc1)O2` (stereo not drawn) [6-methylpinostrobin], the figures for the EC50 in the data set with DENV2 and with DENV 4 were 16 ± 5.38 µM and 11.7 ± 6.04 µM, respectively.

In the case of `COc1c(I)c(O)c2c(c1I)OC(c1ccccc1)CC2=O` (stereo not drawn) [TH012, 6,8-diiodo-5-hydroxy-7-methoxyflavanone], in [1], it took 2.8 ± 1.55 µM to reach a half-maximal effect (EC50) and the “SI NGC (CC50/EC50)” value is recorded as >3.5714. Further, in data set [5], the CC50 at 48 h is > 10 µM. Also, the “Concentration above which compound was only partially dissolved” value in data set [6] is “exceeded 10 µM”.

What is called EC50 is the midpoint of the concentration-response curve. The CC50 is the concentration that lowers cell viability or growth by half. As usually defined, the half-life is how long it takes for the measured level to halve. The term Ki denotes the equilibrium dissociation constant of an inhibitor or competing ligand from its target.
